Assay [1] concerns the target rNav 1.7 (Rattus norvegicus, UniProt O08562). The assay can be described thus: cell-based. The format is cell-based.
Assay [2] deals with hNaV1.7 (Homo sapiens, UniProt Q15858). It counts as cell-based.
Setting [3] is: read-out: rNav 1.7 % block peptide concentration.

Positions of bridges follow the written chain, without caps; N, C: chain ends. Non-standard residues stand in square brackets, D forms with d. Residues, ends and D or L forms follow the SMILES beside them. Chains are numbered I, II in the order given. No end group written: not given here. *: point of attachment. Glutathionyl = N[C@@H](CCC(=O)N[C@@H](CS*)C(=O)NCC(=O)O)C(=O)O; Hyp = O=C(O)[C@@H]1C[C@@H](O)CN1

Chain of rNav 1.7 (O08562 whole entry, looked up): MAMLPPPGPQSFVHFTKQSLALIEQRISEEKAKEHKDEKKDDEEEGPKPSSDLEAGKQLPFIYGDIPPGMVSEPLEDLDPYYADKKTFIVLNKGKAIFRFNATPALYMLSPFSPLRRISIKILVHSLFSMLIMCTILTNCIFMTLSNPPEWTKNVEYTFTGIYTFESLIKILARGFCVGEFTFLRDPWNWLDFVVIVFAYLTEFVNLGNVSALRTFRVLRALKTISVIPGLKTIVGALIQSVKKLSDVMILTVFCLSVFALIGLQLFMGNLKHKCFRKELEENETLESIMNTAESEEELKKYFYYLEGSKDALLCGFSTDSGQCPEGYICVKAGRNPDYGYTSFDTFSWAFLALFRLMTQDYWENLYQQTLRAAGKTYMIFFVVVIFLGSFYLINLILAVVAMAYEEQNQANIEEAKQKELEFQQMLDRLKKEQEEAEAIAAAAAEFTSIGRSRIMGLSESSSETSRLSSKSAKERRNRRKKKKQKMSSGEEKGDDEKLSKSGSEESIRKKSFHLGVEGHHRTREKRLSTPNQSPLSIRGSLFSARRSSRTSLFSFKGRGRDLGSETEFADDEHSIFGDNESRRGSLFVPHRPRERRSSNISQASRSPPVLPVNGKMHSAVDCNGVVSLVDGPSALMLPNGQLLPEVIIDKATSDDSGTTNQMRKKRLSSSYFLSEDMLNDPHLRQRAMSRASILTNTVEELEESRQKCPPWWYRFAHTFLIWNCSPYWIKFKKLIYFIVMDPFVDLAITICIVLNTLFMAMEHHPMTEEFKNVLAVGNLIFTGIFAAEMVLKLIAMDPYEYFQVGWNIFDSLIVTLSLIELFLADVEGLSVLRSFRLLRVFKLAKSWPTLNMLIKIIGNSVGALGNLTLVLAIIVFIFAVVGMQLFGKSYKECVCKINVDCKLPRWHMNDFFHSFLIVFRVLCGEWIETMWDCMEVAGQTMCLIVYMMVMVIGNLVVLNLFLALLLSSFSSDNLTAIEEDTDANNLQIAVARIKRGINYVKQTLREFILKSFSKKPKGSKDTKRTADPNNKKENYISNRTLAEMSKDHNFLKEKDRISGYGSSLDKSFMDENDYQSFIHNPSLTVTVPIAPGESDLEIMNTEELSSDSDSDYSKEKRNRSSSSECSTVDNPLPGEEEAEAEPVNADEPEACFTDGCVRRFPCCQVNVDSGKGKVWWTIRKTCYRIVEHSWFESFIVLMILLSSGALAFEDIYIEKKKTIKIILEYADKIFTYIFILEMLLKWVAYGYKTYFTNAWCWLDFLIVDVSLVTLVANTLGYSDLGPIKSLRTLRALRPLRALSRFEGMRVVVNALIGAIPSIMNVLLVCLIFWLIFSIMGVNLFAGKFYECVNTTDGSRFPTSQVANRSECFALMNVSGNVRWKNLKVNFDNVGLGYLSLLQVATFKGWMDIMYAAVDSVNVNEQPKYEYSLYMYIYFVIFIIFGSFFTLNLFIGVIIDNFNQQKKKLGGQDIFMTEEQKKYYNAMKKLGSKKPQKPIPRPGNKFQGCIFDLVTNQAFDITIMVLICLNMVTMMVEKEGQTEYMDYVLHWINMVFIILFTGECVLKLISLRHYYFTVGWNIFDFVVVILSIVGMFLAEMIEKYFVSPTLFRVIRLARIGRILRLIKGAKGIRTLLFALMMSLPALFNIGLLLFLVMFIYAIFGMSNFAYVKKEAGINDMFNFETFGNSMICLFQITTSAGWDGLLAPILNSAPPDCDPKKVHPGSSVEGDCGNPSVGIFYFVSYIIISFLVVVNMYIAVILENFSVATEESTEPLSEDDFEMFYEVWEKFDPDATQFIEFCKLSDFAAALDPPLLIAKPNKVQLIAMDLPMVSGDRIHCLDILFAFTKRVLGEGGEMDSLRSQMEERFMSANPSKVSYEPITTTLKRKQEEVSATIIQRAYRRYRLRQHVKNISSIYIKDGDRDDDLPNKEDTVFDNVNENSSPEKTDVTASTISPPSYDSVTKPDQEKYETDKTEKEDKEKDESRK
Chain of hNaV1.7 (Q15858 whole entry, looked up): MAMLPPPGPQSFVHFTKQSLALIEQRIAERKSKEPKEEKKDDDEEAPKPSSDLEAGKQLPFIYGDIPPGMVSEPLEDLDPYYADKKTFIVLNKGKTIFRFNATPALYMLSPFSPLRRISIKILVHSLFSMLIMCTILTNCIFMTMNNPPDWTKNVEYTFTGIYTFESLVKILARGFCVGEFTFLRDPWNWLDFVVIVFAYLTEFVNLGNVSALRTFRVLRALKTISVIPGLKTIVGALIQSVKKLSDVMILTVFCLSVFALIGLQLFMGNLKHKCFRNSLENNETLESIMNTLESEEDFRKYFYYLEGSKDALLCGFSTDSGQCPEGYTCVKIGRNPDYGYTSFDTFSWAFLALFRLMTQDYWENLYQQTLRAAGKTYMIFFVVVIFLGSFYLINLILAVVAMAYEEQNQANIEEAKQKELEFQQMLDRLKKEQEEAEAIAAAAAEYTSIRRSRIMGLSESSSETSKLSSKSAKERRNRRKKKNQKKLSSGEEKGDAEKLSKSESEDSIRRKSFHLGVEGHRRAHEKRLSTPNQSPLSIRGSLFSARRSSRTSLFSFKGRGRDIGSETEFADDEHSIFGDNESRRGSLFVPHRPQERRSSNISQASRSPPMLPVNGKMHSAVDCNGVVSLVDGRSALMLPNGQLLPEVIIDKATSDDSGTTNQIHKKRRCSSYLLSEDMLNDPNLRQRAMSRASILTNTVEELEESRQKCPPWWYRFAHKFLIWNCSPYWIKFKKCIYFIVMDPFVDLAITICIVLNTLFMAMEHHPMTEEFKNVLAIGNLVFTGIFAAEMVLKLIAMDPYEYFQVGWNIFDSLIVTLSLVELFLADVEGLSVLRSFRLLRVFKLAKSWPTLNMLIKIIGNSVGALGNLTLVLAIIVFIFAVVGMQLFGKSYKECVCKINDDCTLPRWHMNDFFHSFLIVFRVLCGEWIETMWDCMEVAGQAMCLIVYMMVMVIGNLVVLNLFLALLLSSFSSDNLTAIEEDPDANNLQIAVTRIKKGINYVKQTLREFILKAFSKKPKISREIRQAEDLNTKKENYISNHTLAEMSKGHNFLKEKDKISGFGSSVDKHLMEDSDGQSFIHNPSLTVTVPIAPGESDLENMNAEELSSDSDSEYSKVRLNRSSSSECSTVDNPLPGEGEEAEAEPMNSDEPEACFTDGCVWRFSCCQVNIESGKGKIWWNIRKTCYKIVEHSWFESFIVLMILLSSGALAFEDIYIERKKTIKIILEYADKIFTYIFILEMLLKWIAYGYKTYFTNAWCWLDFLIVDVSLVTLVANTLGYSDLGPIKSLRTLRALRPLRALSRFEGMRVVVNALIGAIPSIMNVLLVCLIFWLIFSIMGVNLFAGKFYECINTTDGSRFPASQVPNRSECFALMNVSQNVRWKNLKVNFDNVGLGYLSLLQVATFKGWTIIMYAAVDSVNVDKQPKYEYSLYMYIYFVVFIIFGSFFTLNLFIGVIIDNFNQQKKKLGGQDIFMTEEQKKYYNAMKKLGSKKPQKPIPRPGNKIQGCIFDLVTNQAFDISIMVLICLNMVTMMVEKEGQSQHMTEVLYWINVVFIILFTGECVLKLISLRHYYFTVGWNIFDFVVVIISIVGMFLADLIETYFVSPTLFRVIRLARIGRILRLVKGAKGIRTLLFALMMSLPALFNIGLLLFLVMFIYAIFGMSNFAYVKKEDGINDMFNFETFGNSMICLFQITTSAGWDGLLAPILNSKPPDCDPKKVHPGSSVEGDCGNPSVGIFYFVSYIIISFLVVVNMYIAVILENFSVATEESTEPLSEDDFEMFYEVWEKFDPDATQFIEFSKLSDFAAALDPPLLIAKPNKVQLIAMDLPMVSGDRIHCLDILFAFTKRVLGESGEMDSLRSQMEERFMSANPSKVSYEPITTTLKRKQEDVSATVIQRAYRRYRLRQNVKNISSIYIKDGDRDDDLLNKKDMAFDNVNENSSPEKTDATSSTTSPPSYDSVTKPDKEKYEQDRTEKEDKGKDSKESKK

As to `CC(C)C[C@@H]1NC(=O)[C@H](CCCCN)NC(=O)CNC(=O)[C@@H]2CSSC[C@@H]3NC(=O)[C@H](Cc4ccccc4)NC(=O)CNC(=O)[C@H](CO)NC(=O)[C@H](CSSC[C@H](NC(=O)[C@H](Cc4c[nH]c5ccccc45)NC(=O)CN)C(=O)NCC(=O)N[C@@H](CC(=O)O)C(=O)N4C[C@H](O)C[C@H]4C(=O)NCC(=O)N[C@@H](C)C(=O)N[C@@H]([C@@H](C)O)C(=O)N2)NC(=O)[C@H](CSSC[C@@H](C(=O)N[C@@H](CCCCN)C(=O)N[C@@H](CC(=O)O)C(=O)N[C@@H](CCCCN)C(=O)N[C@@H](CO)C(=O)N[C@@H](CO)C(=O)N[C@@H](C)C(=O)O)NC(=O)[C@H]([C@@H](C)O)NC(=O)CNC(=O)[C@H]([C@@H](C)O)NC(=O)[C@H](Cc2ccc(O)cc2)NC(=O)[C@H](CSSC[C@H](NC(=O)CC[C@H](N)C(=O)O)C(=O)NCC(=O)O)NC(=O)[C@H](CC(=O)O)NC3=O)NC(=O)[C@H](Cc2ccc(O)cc2)NC(=O)[C@H](CC(C)C)NC(=O)[C@H](CCCNC(=N)N)NC1=O` [C.geeo1[K27G]], the inhibition at 33 µM in assay [1] (setting [3]) turned out to be 60%. As for `CC[C@@H]1NC(=O)[C@H](CC(=O)O)NC(=O)[C@@H]2CSSC[C@@H]3NC(=O)[C@H]([C@@H](C)O)NC(=O)[C@H](C)NC(=O)CNC(=O)[C@@H]4C[C@@H](O)CN4C(=O)[C@H](CC(=O)O)NC(=O)CNC(=O)[C@@H](NC(=O)[C@H](Cc4c[nH]c5ccccc45)NC(=O)CN)CSSC[C@H](NC(=O)[C@H](CSSC[C@@H](C(=O)N[C@@H](CCCCN)C(=O)N[C@@H](CC(=O)O)C(=O)N[C@@H](CCCCN)C(=O)N[C@@H](CO)C(=O)N[C@@H](CO)C(=O)N[C@@H](C)C(=O)O)NC(=O)[C@H]([C@@H](C)O)NC(=O)[C@H](CCCCN)NC(=O)[C@H]([C@@H](C)O)NC(=O)[C@H](Cc4ccc(O)cc4)NC1=O)NC(=O)[C@H](Cc1ccc(O)cc1)NC(=O)[C@H](CC(C)C)NC(=O)[C@H](CCCNC(=N)N)NC(=O)[C@H](CC(C)C)NC(=O)[C@H](CCCCN)NC(=O)CNC3=O)C(=O)N[C@@H](CO)C(=O)NCC(=O)N[C@@H](Cc1ccccc1)C(=O)N2` [C.geo1[C24Abu]], in assay [1] (setting [3]), the inhibition at 33 µM worked out at 20%. With `CC(=O)NCSC[C@@H]1NC(=O)[C@H](CC(=O)O)NC(=O)[C@@H]2CSSC[C@@H]3NC(=O)[C@H]([C@@H](C)O)NC(=O)[C@H](C)NC(=O)CNC(=O)[C@@H]4C[C@@H](O)CN4C(=O)[C@H](CC(=O)O)NC(=O)CNC(=O)[C@@H](NC(=O)[C@H](Cc4c[nH]c5ccccc45)NC(=O)CN)CSSC[C@H](NC(=O)[C@H](CSSC[C@@H](C(=O)N[C@@H](CCCCN)C(=O)N[C@@H](CC(=O)O)C(=O)N[C@@H](CCCCN)C(=O)N[C@@H](CO)C(=O)N[C@@H](CO)C(=O)N[C@@H](C)C(=O)O)NC(=O)[C@H]([C@@H](C)O)NC(=O)[C@H](CCCCN)NC(=O)[C@H]([C@@H](C)O)NC(=O)[C@H](Cc4ccc(O)cc4)NC1=O)NC(=O)[C@H](Cc1ccc(O)cc1)NC(=O)[C@H](CC(C)C)NC(=O)[C@H](CCCNC(=N)N)NC(=O)[C@H](CC(C)C)NC(=O)[C@H](CCCCN)NC(=O)CNC3=O)C(=O)N[C@@H](CO)C(=O)NCC(=O)N[C@@H](Cc1ccccc1)C(=O)N2` [C.geo1[C24Cys(Acm)]], the inhibition at 33 µM in assay [1] (setting [3]) is 70%.

For `CC(C)C[C@@H]1NC(=O)[C@H](CCCCN)NC(=O)CNC(=O)[C@@H]2CSSC[C@@H]3NC(=O)[C@H](Cc4ccccc4)NC(=O)CNC(=O)[C@H](CO)NC(=O)[C@H](CSSC[C@H](NC(=O)[C@H](Cc4c[nH]c5ccccc45)NC(=O)CN)C(=O)NCC(=O)N[C@@H](CC(=O)O)C(=O)N4C[C@H](O)C[C@H]4C(=O)NCC(=O)N[C@@H](C)C(=O)N[C@@H]([C@@H](C)O)C(=O)N2)NC(=O)[C@H](CSSC[C@@H](C(=O)N[C@@H](CCCCN)C(=O)N[C@@H](CC(=O)O)C(=O)N[C@@H](CCCCN)C(=O)N[C@@H](CO)C(=O)N[C@@H](CO)C(=O)N[C@@H](C)C(=O)O)NC(=O)[C@H]([C@@H](C)O)NC(=O)[C@H](CCCCN)NC(=O)[C@H]([C@@H](C)O)NC(=O)[C@H](Cc2ccc(O)cc2)NC(=O)[C@H](CCC(=O)O)NC(=O)[C@H](CC(=O)O)NC3=O)NC(=O)[C@H](Cc2ccc(O)cc2)NC(=O)[C@H](CC(C)C)NC(=O)[C@H](CCCNC(=N)N)NC1=O` [C.geo1[C24E]] (H-GWCGD[Hyp]GATCGKLRLYCCSGFCDEYTKTCKDKSSA-OH; disulfide 3-18, 10-22, 17-29), the inhibition at 33 µM in assay [1] (setting [3]) stood at 15%. Regarding `CC(C)C[C@@H]1NC(=O)[C@H](CCCCN)NC(=O)CNC(=O)[C@@H]2CSSC[C@@H]3NC(=O)[C@H](Cc4ccccc4)NC(=O)CNC(=O)[C@H](CO)NC(=O)[C@H](CSSC[C@H](NC(=O)[C@H](Cc4c[nH]c5ccccc45)NC(=O)CN)C(=O)NCC(=O)N[C@@H](CC(=O)O)C(=O)N4C[C@H](O)C[C@H]4C(=O)NCC(=O)N[C@@H](C)C(=O)N[C@@H]([C@@H](C)O)C(=O)N2)NC(=O)[C@H](CSSC[C@@H](C(=O)N[C@@H](CCCCN)C(=O)N[C@@H](CC(=O)O)C(=O)N[C@@H](CCCCN)C(=O)N[C@@H](CO)C(=O)N[C@@H](CO)C(=O)N[C@@H](C)C(=O)O)NC(=O)[C@H]([C@@H](C)O)NC(=O)[C@H](CCCCN)NC(=O)[C@H]([C@@H](C)O)NC(=O)[C@H](Cc2ccc(O)cc2)NC(=O)[C@H](CCCCN)NC(=O)[C@H](CC(=O)O)NC3=O)NC(=O)[C@H](Cc2ccc(O)cc2)NC(=O)[C@H](CC(C)C)NC(=O)[C@H](CCCNC(=N)N)NC1=O` [C.geo1[C24K]] (H-GWCGD[Hyp]GATCGKLRLYCCSGFCDKYTKTCKDKSSA-OH; disulfide 3-18, 10-22, 17-29), the inhibition at 33 µM in assay [1] (setting [3]) is 20%. For `CC(C)C[C@@H]1NC(=O)[C@H](CCCCN)NC(=O)CNC(=O)[C@@H]2CSSC[C@@H]3NC(=O)[C@H](Cc4ccccc4)NC(=O)CNC(=O)[C@H](CO)NC(=O)[C@H](CSSC[C@H](NC(=O)[C@H](Cc4c[nH]c5ccccc45)NC(=O)CN)C(=O)NCC(=O)N[C@@H](CC(=O)O)C(=O)N4C[C@H](O)C[C@H]4C(=O)NCC(=O)N[C@@H](C)C(=O)N[C@@H]([C@@H](C)O)C(=O)N2)NC(=O)[C@H](CSSC[C@@H](C(=O)N[C@@H](CCCCN)C(=O)N[C@@H](CC(=O)O)C(=O)N[C@@H](CCCCN)C(=O)N[C@@H](CO)C(=O)N[C@@H](CO)C(=O)N[C@@H](C)C(=O)O)NC(=O)[C@H]([C@@H](C)O)NC(=O)[C@H](CCCCN)NC(=O)[C@H]([C@@H](C)O)NC(=O)[C@H](Cc2ccc(O)cc2)NC(=O)[C@H](CO)NC(=O)[C@H](CC(=O)O)NC3=O)NC(=O)[C@H](Cc2ccc(O)cc2)NC(=O)[C@H](CC(C)C)NC(=O)[C@H](CCCNC(=N)N)NC1=O` [C.geo1[C24S]] (H-GWCGD[Hyp]GATCGKLRLYCCSGFCDSYTKTCKDKSSA-OH; disulfide 3-18, 10-22, 17-29), in assay [1] (setting [3]), the inhibition at 33 µM stood at 20%. `CC(C)C[C@@H]1NC(=O)[C@H](CCCCN)NC(=O)CNC(=O)[C@@H]2CSSC[C@@H]3NC(=O)[C@H](Cc4ccccc4)NC(=O)CNC(=O)[C@H](CO)NC(=O)[C@H](CSSC[C@H](NC(=O)[C@H](Cc4c[nH]c5ccccc45)NC(=O)CN)C(=O)NCC(=O)N[C@@H](CC(=O)O)C(=O)N[C@@H](C)C(=O)NCC(=O)N[C@@H](C)C(=O)N[C@@H]([C@@H](C)O)C(=O)N2)NC(=O)[C@H](CSSC[C@@H](C(=O)N[C@@H](CCCCN)C(=O)N[C@@H](CC(=O)O)C(=O)N[C@@H](CCCCN)C(=O)N[C@@H](CO)C(=O)N[C@@H](CO)C(=O)N[C@@H](C)C(=O)O)NC(=O)[C@H]([C@@H](C)O)NC(=O)[C@H](CCCCN)NC(=O)[C@H]([C@@H](C)O)NC(=O)[C@H](Cc2ccc(O)cc2)NC(=O)[C@H](CSSC[C@H](NC(=O)CC[C@H](N)C(=O)O)C(=O)NCC(=O)O)NC(=O)[C@H](CC(=O)O)NC3=O)NC(=O)[C@H](Cc2ccc(O)cc2)NC(=O)[C@H](CC(C)C)NC(=O)[C@H](CCCNC(=N)N)NC1=O` [C.geo1[O6A]] (H-GWCGDAGATCGKLRLYCCSGFCDC(Glutathionyl)YTKTCKDKSSA-OH; disulfide 3-18, 10-22, 17-29): the inhibition at 33 µM in assay [1] (setting [3]) was determined as 60%.

Consider “CVGRDSKCGP PPCCMGMTCN YERVRKCT [SEQ ID 025]”, for which the “activity against hNav1.7” value in assay [2] is listed as “not active”. Further, in assay [1], the “activity against rNav1.7” value is listed as “not active”. “DWCGDAGDACGTLKLRCCSGLCNQYSGTCTG [C. geo2]”: the “% block of hNaV1.7” value in assay [2] amounted to 69%. With “GWCGDOGATCGKLRLYCCSGFCD(Abu)YTKTCKDKS_A [C. geo1[C24Abu,des-Ser34]]”, in assay [1], the “% block of NaV1.7 from rat” value was found to be 20% and the “reversibility of NaV1.7 block” value is recorded as “quickly reversible”. Take “I: GWCGD[Hyp]GATCGKLRLYCCSGFCDCYTKTCKDKSSA / II: GWCGD[Hyp]GATCGKLRLYCCSGFCDCYTKTCKDKSSA (disulfide I:3-I:18, I:10-I:22, I:17-I:29, I:24-II:24, II:3-II:18, II:10-II:22, II:17-II:29) [C.geo1[dimer]]”: the inhibition at 30 µM in assay [1] (setting [3]) is 70%.
